# Data as given in patent US6365572B1, “Low molecular weight peptide derivatives as inhibitors of the laminin/nidogen interaction” (Aventis Pharma Deutschland GmbH, priority 1999, dated 2002).
# Read-outs that look alike come from different tables or passages of the source. Starred links: 1 amine or outer side, 2 acyl side, 3 side chain; linkers in the order of their positions; H or OH if unused. Non-standard residues stand in square brackets, D forms with d. Residues, ends and D or L forms follow the SMILES beside them. No end group written: not given here. ξ: configuration not given here. *: point of attachment. Bip = N[C@@H](Cc1ccc(-c2ccccc2)cc1)C(=O)O; 2Nal = N[C@@H](Cc1ccc2ccccc2c1)C(=O)O; NH(3-hydroxypropyl) = OCCCN*; Suc = O=C(CCC(=O)[*:2])[*:1]; ξN = NC(=O)CC(N)C(=O)O; Bn = c1ccc(C*)cc1
# Assays:
# [1] = biological target: T1, laminin/nidogen interaction (laminin P1, recombinantly produced human nidogen) (Homo sapiens, UniProt P14543); assay: HTS screening assay (time-resolved fluorescence), inhibition of laminin/nidogen binding
# T1 construct: made in house; host or cells: HEK-293
# T1 sequence (P14543 29-1247): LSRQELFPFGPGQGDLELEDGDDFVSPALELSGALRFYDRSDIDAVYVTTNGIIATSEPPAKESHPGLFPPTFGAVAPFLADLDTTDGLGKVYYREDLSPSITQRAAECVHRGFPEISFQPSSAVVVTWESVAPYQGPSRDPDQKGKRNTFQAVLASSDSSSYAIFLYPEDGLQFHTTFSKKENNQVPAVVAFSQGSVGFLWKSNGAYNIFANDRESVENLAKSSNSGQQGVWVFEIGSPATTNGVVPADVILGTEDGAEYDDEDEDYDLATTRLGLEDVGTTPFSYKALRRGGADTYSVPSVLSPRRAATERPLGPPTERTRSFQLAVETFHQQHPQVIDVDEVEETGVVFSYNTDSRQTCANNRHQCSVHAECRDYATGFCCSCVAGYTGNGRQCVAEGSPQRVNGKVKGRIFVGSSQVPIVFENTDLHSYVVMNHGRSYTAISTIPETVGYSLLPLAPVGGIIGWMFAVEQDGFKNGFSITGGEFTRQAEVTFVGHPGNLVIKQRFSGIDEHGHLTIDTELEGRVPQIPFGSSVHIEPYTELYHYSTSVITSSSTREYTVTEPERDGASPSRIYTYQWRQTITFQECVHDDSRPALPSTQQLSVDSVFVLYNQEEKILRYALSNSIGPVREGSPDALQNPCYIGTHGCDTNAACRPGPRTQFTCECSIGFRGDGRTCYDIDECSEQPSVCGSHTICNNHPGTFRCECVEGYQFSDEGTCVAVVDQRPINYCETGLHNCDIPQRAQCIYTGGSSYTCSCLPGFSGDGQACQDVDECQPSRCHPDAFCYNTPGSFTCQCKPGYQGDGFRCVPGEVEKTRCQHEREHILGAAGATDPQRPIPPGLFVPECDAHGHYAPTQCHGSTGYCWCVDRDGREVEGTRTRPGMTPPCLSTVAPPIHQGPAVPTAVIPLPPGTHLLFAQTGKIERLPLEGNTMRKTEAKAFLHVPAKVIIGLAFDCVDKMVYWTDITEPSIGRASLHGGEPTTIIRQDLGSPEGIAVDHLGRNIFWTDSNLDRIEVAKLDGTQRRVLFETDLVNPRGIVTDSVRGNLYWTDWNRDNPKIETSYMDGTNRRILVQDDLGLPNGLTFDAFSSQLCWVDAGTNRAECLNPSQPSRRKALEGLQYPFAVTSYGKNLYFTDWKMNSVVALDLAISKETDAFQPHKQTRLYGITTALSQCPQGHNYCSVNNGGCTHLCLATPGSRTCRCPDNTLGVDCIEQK
# Experimental: 5) The compound stocks were preincubated with nidogen (10 μl compound stock to 90 μl nidogen solution) and the assay was performed as described in the attached protocol, yielding a final screening concentration of 2.7 μM per compound. The isolation of laminin P1 from human placenta, human nidogen from transfected HEK-293 cells and mouse laminin γ1III 3-5 from HEK-293 cells is described in WO 98/31709. 3.1.1. HTS screening assay (highly sensitive assay variant): Time-Resolved Fluorescence Assay Coating of test tubes Microtiter plates (for example FluoroNunc®) were coated with 75 μl of a 0.1 μg/ml solution of laminin P1 (in 0.159 g of Na2CO3, 0.293 g of NaHCO3, 0.02 g of NaN3/liter, pH 9.2) at room temperature for 1 hour. The solution was then tipped off, and free binding sites were blocked by incubation with 0.5% BSA (in 7.9 g of NaCl, 1.2 g of Na2HPO4, 0.31 g of KCl, 0.23 g of NaH2PO4, 0.04% Tween 20/liter, pH 7.2) at room temperature for 0.5 hour. Completion of the blocking reaction was followed by decantation of the solution and washing once with 250 μl of washing buffer (PBS/0.04% Tween). Sequential inhibition In parallel with the coating, a preincubation of 85-100 μl of a 0.25 nM nidogen solution (recombinantly produced human nidogen) with inhibitor or standard was carried out in a separate reaction vessel (1 hour at room temperature in 7.9 g of NaCl, 1.2 g of Na2HPO4, 0.31 g of KCl, 0.23 g of NaH2PO4, 0.04% Tween 20/liter, 0.5% BSA, pH 7.2). 75 μl of the preincubation (nidogen+inhibitor or standard) were transferred into the coated wells of the microtiter plate and incubated at room temperature for 1 hour. This was followed by washing twice with PBS/0.04% Tween. Detection of the bound nidogen took place by incubation (at room temperature) for 1 hour with 75 μl of a specific antibody preparation obtained from yolks of eggs from a chicken immunized with human nidogen. The IgY fraction was used in a dilution of 1:500 in PBS/0.04% Tween. The complex of nidogen and specifically bound antibodies was, after washing twice with PBS/0.04% Tween, detected by adding anti-chicken IgY-biotin (75 μl of a 1:2500 dilution; Promega, Madison, Wis. 53711, 608-274-4330). An incubation time of 1 hour and washing twice with PBS/0.04% Tween were followed for this purpose by incubation with streptavidin-europium (Wallac; 1 hour at room temperature) and washing twice with PBS/0.04% Tween. It was finally possible, after adding 100 μl of enhancement solution (Wallac) and shaking for 5 minutes, to measure a fluorescence signal in a Victor multilabel counter using the europium protocol. The relation between the amount, of bound nidogen in the solutions with inhibitor and that of nidogen without added inhibitor was found.
# [2] = biological target: T2, laminin/nidogen association (Homo sapiens, UniProt P14543); assay: Three-day equilibrium assay, inhibition of laminin/nidogen association; format: binding; conditions: Table 2, 3-day equilibrium assay variant
# T2 sequence (P14543 29-1247): T1 sequence (P14543 29-1247)
# From the text: 3.1.2. Three-day equilibrium assay Selected inhibitors were investigated for inhibitory activity in this assay variant. The assay is described in U.S. Pat. No. 5,493,008. The following table compares IC50 values of selected substances with the results of the HTS screening assay. It is clear that the 3-day assay gives slightly lower measured values and, as expected, is more sensitive than the screening assay. However, it is also clear from the comparison that inhibitory structures can be identified reliably with the screening assay developed by us.
# [3] = Table 2, HTS assay variant, read-out: IC50, HTS assay
# [4] = results table 1.3, synthesized compounds 1 to 43, read-out: IC50
Compound,"IC50 [1, 3]","IC50 [1, 4]",IC50 [2]
"CC(C)[C@H](NC(=O)[C@H](C)NC(=O)[C@H](CC(N)=O)NC(=O)[C@H](Cc1ccc2ccccc2c1)NC(=O)CCC(=O)O)C(N)=O [Compound 31, Succinyl-L-3-(2-naphthyl)alanyl-L-asparaginyl-L-alanyl-L-valine-amide] (Suc-[2Nal]NAV-NH2)",190 nM,190 nM,85 nM
"CC(C)[C@H](NC(=O)CNC(=O)[C@H](CC(N)=O)NC(=O)[C@H](Cc1ccc2ccccc2c1)NC(=O)CCC(=O)O)C(N)=O [Compound 33, Succinyl-L-3-(2-naphthyl)alanyl-L-asparaginyl-glycinyl-L-valine-amide] (Suc-[2Nal]NGV-NH2)",,720 nM,
"CC(C)[C@H](NC(=O)[C@H](C)NC(=O)[C@H](CC(N)=O)NC(=O)[C@H](Cc1ccc(OCc2ccccc2)cc1)NC(=O)CCC(=O)O)C(N)=O [Compound 35, Succinyl-L-O-benzyl-tyrosyl-L-asparaginyl-L-alanyl-L-valine-amide] (Suc-Y(Bn)NAV-NH2)",,5020 nM,
"CC(C)[C@@H](CO)NC(=O)[C@H](C)NC(=O)[C@H](CC(N)=O)NC(=O)[C@H](Cc1ccc2ccccc2c1)NC(=O)CCC(=O)O [Compound 38, Succinyl-L-3-(2-Naphthyl)alanyl-L-asparaginyl-L-alaninyl-L-valinol]",,260 nM,
"CC(C)C(NC(=O)[C@H](C)NC(=O)[C@H](CC(N)=O)NC(=O)[C@H](Cc1ccc2ccccc2c1)NC(=O)CCC(=O)O)C(C)C [Compound 39, Succinyl-L-3-(2-Naphthyl)alanyl-L-asparaginyl-L-alanine-2,4-dimethylpentylamide]",,1500 nM,
"C[C@H](NC(=O)[C@H](CC(N)=O)NC(=O)[C@H](Cc1ccc2ccccc2c1)NC(=O)CCC(=O)O)C(=O)NCC(C)(C)C [Compound 40, Succinyl-L-3-(2-Naphthyl)alanyl-L-asparaginyl-L-alanine-neopentylamide]",,1160 nM,
"CC[C@H](C)[C@H](NC(=O)C(N)CC(N)=O)C(=O)N[C@@H](CC(=O)O)C(=O)N1CCC[C@H]1C(=O)N[C@@H](CC(N)=O)C(=O)N[C@@H](C)C(=O)N[C@H](C(=O)O)C(C)C (stereo partly drawn) [NIDPNAV, Asn-lie-Asp-Pro-Asn-Ala-Val, reference compound] (H-[ξN]IDPNAV-OH)",3900 nM,,1200 nM

# Next, values leading:
"IC50 [1, 3]","IC50 [1, 4]",IC50 [2],Compound
360 nM,390 nM,90 nM,"CC(C)[C@H](NC(=O)[C@H](CO)NC(=O)[C@H](CC(N)=O)NC(=O)[C@H](Cc1ccc2ccccc2c1)NC(=O)CCC(=O)O)C(=O)NCC(=O)NCCCO [Compound 24, Succinyl-L-3-(2-naphthyl)alanyl-L-asparaginyl-L-seryl-L-valyl-glycine-3-hydroxypropylamide] (Suc-[2Nal]NSVG-{NH(3-hydroxypropyl)})"
,2830 nM,,"CC(C)[C@H](NC(=O)[C@H](C)NC(=O)[C@H](CC(N)=O)NC(=O)[C@H](Cc1ccc(-c2ccccc2)cc1)NC(=O)CCC(=O)O)C(N)=O [Compound 36, Succinyl-L-3-(4-biphenyl)alanyl-L-asparaginyl-L-alanyl-L-valine-amide] (Suc-[Bip]NAV-NH2)"
,830 nM,,"CC(C)[C@H](NC(=O)[C@H](C)NC(=O)[C@H](CC(N)=O)NC(=O)[C@H](Cc1ccc2ccccc2c1)NC(=O)CCC(=O)O)C(=O)O [Compound 37, Succinyl-L-3-(2-Naphthyl)alanyl-L-asparaginyl-L-alanyl-L-valine] (Suc-[2Nal]NAV-OH)"
,8170 nM,,"C[C@H](NC(=O)[C@H](CC(N)=O)NC(=O)[C@H](Cc1ccc2ccccc2c1)NC(=O)CCC(=O)O)C(=O)N1CCCC(C)(C)C1 [Compound 41, Succinyl-L-3-(2-Naphthyl)alanyl-L-asparaginyl-L-alanine-3,3-dimethylpiperidinylamide]"
,240 nM,,"CC(C)[C@H](NC(=O)[C@H](C)NC(=O)[C@H](CC(N)=O)NC(=O)[C@H](Cc1ccc2ccccc2c1)NC(=O)CCC(=O)O)C(=O)N(C)C [Compound 42, Succinyl-L-3-(2-Naphthyl)alanyl-L-asparaginyl-L-alanyl-L-valine-dimethylamide] (Suc-[2Nal]NAV-NMe2)"
7700 nM,,5000 nM,"DPNAV [DPNAV, reference compound]"
